For 15 molecules, TGI results are on record in PubChem BioAssay (NCI).

Among the test systems are OVCAR-5 ovarian; NCI-H522 lung; LOX IMVI melanoma; T-47D breast; COLO 205 colon; MOLT-4 leukemia; SNB-19 CNS; NCI-H23 lung; RXF 393 renal; HCT-116 colon; NCI-H226 lung; SK-MEL-28 melanoma; BT-549 breast; NCI-H460 lung; SN12C renal.
Holding throughout (assay): growth of human tumour cells (NCI), 48 h

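Method: 48-hour compound exposure of cells in 96-well plates, five concentrations, linear interpolation of endpoints. TGI denotes the concentration required for complete inhibition of growth.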 A value given as a limit tells only on which side of the number the result lay.

Turning to `O=C(O)C(C(F)(F)F)C(F)(F)F` (tested in a mixture with another compound), the TGI with OVCAR-5 ovarian, in the test with NCI-H522 lung, in the test on LOX IMVI melanoma, with T-47D breast, in the test with COLO 205 colon and in the test on MOLT-4 leukemia was above 100 µM in each case. Besides, the TGI in the test with SNB-19 CNS, in the test with NCI-H23 lung, with RXF 393 renal, in the test with HCT-116 colon, with NCI-H226 lung and in the test on SK-MEL-28 melanoma was above 100 µM each time. The TGI in the test on BT-549 breast, in the test with NCI-H460 lung and with SN12C renal was above 100 µM throughout.
As to `COc1cc(/C=C/C(=O)N[C@@H]2C(=O)N3[C@@H]2SC(C)(C)[C@@H]3C(=O)O)ccc1O`, the TGI in the test on OVCAR-5 ovarian, with NCI-H522 lung, in the test on LOX IMVI melanoma, in the test on T-47D breast, with COLO 205 colon and with MOLT-4 leukemia was above 100 µM in each case. The TGI with SNB-19 CNS, in the test on NCI-H23 lung, in the test on RXF 393 renal, in the test on HCT-116 colon, in the test with NCI-H226 lung and in the test with SK-MEL-28 melanoma was above 100 µM throughout. The TGI in the test on BT-549 breast, in the test on NCI-H460 lung and in the test on SN12C renal was above 100 µM throughout.
Turning to `Oc1cc(F)cc2cccnc12`, the TGI with OVCAR-5 ovarian is above 100 µM; in the test on NCI-H522 lung it was 3.16 µM; with LOX IMVI melanoma, 29.1 µM; in the test on T-47D breast, above 74.7 µM; in the test on COLO 205 colon, above 53.4 µM; in the test with MOLT-4 leukemia it was 1.97 µM. Further, the TGI with SNB-19 CNS is above 100 µM; in the test with NCI-H23 lung, 18.2 µM; with RXF 393 renal, 46.4 µM; in the test with HCT-116 colon, above 20.9 µM; with NCI-H226 lung it was above 100 µM; in the test on SK-MEL-28 melanoma, above 100 µM. Also, the TGI in the test with BT-549 breast is 70.2 µM; with NCI-H460 lung, 29.3 µM; in the test on SN12C renal, above 94.3 µM.
As for `C/C=C/C(O)P(=O)(OC)OC` (stereo not given), the TGI with OVCAR-5 ovarian was found to be 1.22 µM; in the test on NCI-H522 lung it was 0.664 µM; with LOX IMVI melanoma, 0.392 µM; in the test with T-47D breast it was 1.55 µM; in the test on COLO 205 colon it was 0.366 µM; in the test with MOLT-4 leukemia, 11.2 µM. In addition, the TGI is 1.53 µM in the test with SNB-19 CNS; 1.2 µM in the test with NCI-H23 lung; 0.543 µM in the test with RXF 393 renal; 0.835 µM in the test with HCT-116 colon; 1.39 µM with NCI-H226 lung; 1.36 µM with SK-MEL-28 melanoma. Further, the TGI with BT-549 breast was found to be 1.8 µM; in the test with NCI-H460 lung, 0.93 µM; in the test with SN12C renal, 1.79 µM.
`O=c1oc2ccccc2c(O)c1Cc1ccccc1Cc1c(O)c2ccccc2oc1=O`: the TGI in the test with OVCAR-5 ovarian, in the test on NCI-H522 lung, with LOX IMVI melanoma, in the test with T-47D breast, in the test on COLO 205 colon and in the test on MOLT-4 leukemia was above 100 µM in each case. Besides, the TGI in the test with SNB-19 CNS, in the test on NCI-H23 lung, with RXF 393 renal, in the test with HCT-116 colon, in the test on NCI-H226 lung and in the test with SK-MEL-28 melanoma was above 100 µM each time. Also, the TGI with BT-549 breast, in the test with NCI-H460 lung and in the test with SN12C renal was above 100 µM in each case.
On to `C/C(=N\NC(N)=S)C(CN1CCCCC1)C(C1=C(O)c2ccccc2OC1)c1ccccc1` (stereo not given), for which the TGI with OVCAR-5 ovarian, in the test on NCI-H522 lung, in the test with LOX IMVI melanoma, in the test on T-47D breast, in the test with COLO 205 colon and in the test with MOLT-4 leukemia was above 100 µM in each case. Moreover, the TGI in the test with SNB-19 CNS, with NCI-H23 lung, with RXF 393 renal, in the test with HCT-116 colon, in the test with NCI-H226 lung and with SK-MEL-28 melanoma was above 100 µM in each case. Besides, the TGI with BT-549 breast, with NCI-H460 lung and in the test on SN12C renal was above 100 µM throughout.
In the case of `O=C1CCCc2cc3c(cc21)CC1(C3)Cc2cc3c(cc2C1)C(=O)CCC3`, the TGI with OVCAR-5 ovarian was above 62.5 µM; in the test with NCI-H522 lung it was 6.15 µM; in the test with LOX IMVI melanoma, above 65.3 µM; in the test with T-47D breast it was above 100 µM; with COLO 205 colon it was 5.06 µM; in the test on MOLT-4 leukemia, above 43.1 µM. For the same molecule, the TGI in the test on SNB-19 CNS is above 100 µM; in the test on NCI-H23 lung, 31.7 µM; with RXF 393 renal, above 29.3 µM; in the test on HCT-116 colon, 37.9 µM; in the test with NCI-H226 lung, 23.4 µM; in the test with SK-MEL-28 melanoma, 41.7 µM. Also, the results for the TGI in the test on BT-549 breast, in the test with NCI-H460 lung and in the test with SN12C renal were 90.2 µM, above 44.2 µM and above 85.3 µM, respectively.
Consider `Clc1ccc(C2=Cc3nc2c(-c2ccccc2)c2ccc([nH]2)c(-c2ccccc2)c2nc(c(-c4ccccc4)c4ccc([nH]4)c3-c3ccccc3)C=C2)cc1`, for which the TGI with OVCAR-5 ovarian, in the test on NCI-H522 lung, in the test with LOX IMVI melanoma, with T-47D breast, in the test with COLO 205 colon and in the test with MOLT-4 leukemia was above 62.5 µM in each case. Besides, the TGI with SNB-19 CNS, with NCI-H23 lung, in the test with RXF 393 renal, in the test with HCT-116 colon, in the test on NCI-H226 lung and in the test on SK-MEL-28 melanoma was above 62.5 µM throughout. In addition, the TGI in the test with BT-549 breast, in the test on NCI-H460 lung and with SN12C renal was above 62.5 µM throughout.
In the case of `COc1cc([N+](=O)[O-])cc2c1NC(=O)C2(C)SC` (stereo not given), the TGI in the test with OVCAR-5 ovarian, in the test with NCI-H522 lung, in the test on LOX IMVI melanoma, in the test on T-47D breast, in the test with COLO 205 colon and with MOLT-4 leukemia was above 100 µM each time. The TGI with SNB-19 CNS, in the test with NCI-H23 lung, with RXF 393 renal, in the test with HCT-116 colon, in the test on NCI-H226 lung and in the test with SK-MEL-28 melanoma was above 100 µM in each case. Besides, the TGI in the test on BT-549 breast, with NCI-H460 lung and in the test with SN12C renal was above 100 µM throughout.
In the case of `C=CCc1cccc(/C(O)=C/C(=O)/C=C/c2ccccc2Cl)c1O`, the TGI is above 100 µM in the test with OVCAR-5 ovarian; 31 µM in the test with NCI-H522 lung; 24.6 µM in the test on LOX IMVI melanoma; above 100 µM with T-47D breast; above 58.7 µM in the test on COLO 205 colon; 15.6 µM in the test on MOLT-4 leukemia. The TGI with SNB-19 CNS is above 84 µM; in the test with NCI-H23 lung, 21.8 µM; in the test with RXF 393 renal, 75.8 µM; with HCT-116 colon, above 54.3 µM; in the test with NCI-H226 lung, above 75.6 µM; in the test with SK-MEL-28 melanoma, above 57.5 µM. Also, the results for the TGI in the test on BT-549 breast, with NCI-H460 lung and with SN12C renal were above 81.3 µM, above 100 µM and above 100 µM, respectively.
`Oc1c(O)c(Cc2ccccc2)c(Cc2ccccc2)c(Cc2ccccc2)c1Cc1ccccc1`: the TGI with OVCAR-5 ovarian, in the test on NCI-H522 lung, in the test with LOX IMVI melanoma, in the test with T-47D breast, in the test on COLO 205 colon and in the test on MOLT-4 leukemia was above 10 µM in each case. Also, the TGI in the test with SNB-19 CNS, with NCI-H23 lung, in the test with RXF 393 renal, with HCT-116 colon, in the test on NCI-H226 lung and with SK-MEL-28 melanoma was above 10 µM each time. Also, the TGI in the test with BT-549 breast, in the test with NCI-H460 lung and with SN12C renal was above 10 µM throughout.
`NC(=S)NN=C1Cc2ccccc2C1`: the TGI in the test with OVCAR-5 ovarian, in the test on NCI-H522 lung, in the test with LOX IMVI melanoma, with T-47D breast, with COLO 205 colon and in the test with MOLT-4 leukemia was above 100 µM each time. The TGI in the test with SNB-19 CNS, in the test on NCI-H23 lung, in the test on RXF 393 renal, in the test with HCT-116 colon, in the test on NCI-H226 lung and in the test on SK-MEL-28 melanoma was above 100 µM throughout. Also, the TGI with BT-549 breast, in the test with NCI-H460 lung and in the test with SN12C renal was above 100 µM throughout.
For `CCOC(=O)n1ccc2c(C(=O)OC)c(C(=O)OC)cc(/C(=C/C(=O)OC)C(=O)OC)c21`, the TGI in the test on OVCAR-5 ovarian, in the test with NCI-H522 lung, in the test with LOX IMVI melanoma, in the test with T-47D breast, in the test with COLO 205 colon and in the test with MOLT-4 leukemia was above 100 µM throughout. The TGI in the test with SNB-19 CNS, in the test on NCI-H23 lung, in the test on RXF 393 renal, in the test with HCT-116 colon, with NCI-H226 lung and in the test with SK-MEL-28 melanoma was above 100 µM in each case. The TGI in the test with BT-549 breast, in the test with NCI-H460 lung and in the test with SN12C renal was above 100 µM in each case.
As to `CCCCCCCCCCCCCCCCCCOC(COP(=O)(O)OCC1OC(n2cc(F)c(=O)[nH]c2=O)CC1O)COP(=O)(O)OCC1OC(n2ccc(N)nc2=O)C(O)C1O` (stereo not given), the TGI was above 100 µM with OVCAR-5 ovarian; above 100 µM in the test on NCI-H522 lung; above 100 µM in the test with LOX IMVI melanoma; above 100 µM in the test on T-47D breast; above 72.9 µM in the test with COLO 205 colon; above 79.8 µM with MOLT-4 leukemia. Besides, the TGI was 41.2 µM in the test with SNB-19 CNS; above 100 µM with NCI-H23 lung; 49.6 µM in the test with RXF 393 renal; above 100 µM in the test on HCT-116 colon; above 100 µM in the test with NCI-H226 lung; above 100 µM in the test with SK-MEL-28 melanoma. The TGI in the test with BT-549 breast was above 93.2 µM; in the test with NCI-H460 lung it was above 65.3 µM; with SN12C renal, above 100 µM.
In the case of `COc1ccc(-c2n[nH]c3nc4ccccc4n3c2=O)cc1`, the TGI in the test with OVCAR-5 ovarian, with NCI-H522 lung, with LOX IMVI melanoma, in the test with T-47D breast, with COLO 205 colon and in the test with MOLT-4 leukemia was above 100 µM each time. Also, the TGI in the test on SNB-19 CNS, in the test on NCI-H23 lung, in the test on RXF 393 renal, in the test on HCT-116 colon, in the test with NCI-H226 lung and in the test with SK-MEL-28 melanoma was above 100 µM in each case. The TGI with BT-549 breast, with NCI-H460 lung and in the test with SN12C renal was above 100 µM each time.
